Measured values from PMC3864238 (Pharmaceutics, 2011).

Experiments:
PBMCs [1] = test: Cellular association ratio (CAR) of radiolabelled drugs in PBMCs, drug-drug interaction; assay type: in vitro ADME, human; conditions: for effect of incubation at 4 °C on cell-associated concentration / cellular association ratio (CAR): PBMCs; for effect of incubation at 4 °C on cell-associated concentration: 4 °C vs 37 °C; for effect of unlabelled drug on CAR of [^3H]-TDF: 1 μM [^3H]-TDF; for effect of unlabelled drug on CAR of [^3H]-TDF / effect of unlabelled drug on CAR of [^3H]-ddI: dI 100 μM; for effect of unlabelled drug on CAR of [^3H]-ddI: 1 μM [^3H]-ddI; for cellular association ratio (CAR): 1 μM labelled drug, 30–45 min, no interacting drug, mean ± S.D.
Description: 11 PBMC samples were isolated from blood buffy coats using Lymphoprep (Alexis-sheild, Oslo, Norway), following the manufacturer's instructions. An aliquot of the PBMC samples were cryopreserved in fetal calf serum containing 10% dimethyl sulphoxide for batch analysis of membrane proteins by flow cytometry.
We also used 50 μM dipyridamole, 100 μM of deoxycytidine (dC), deoxyinosine (dI) and deoxyguanosine (dG) as positive controls to inhibit the transport of the drugs. The concentrations used of these inhibitors were based on previous observations. […] In a limited number of PBMC samples, we investigated the effects of two drug combinations on the uptake of labelled compounds as described above. The incubations were terminated by centrifugation (15,000 g, 1 min at 0 °C). A-100 μL aliquot of the supernatant was counted for radioactivity and the cell pellets were washed three times in ice-cold phosphate buffered saline followed by rapid centrifugation before the pellets were solubilised in 100 μL of distilled water as described previously and counted for radioactivity.

PBMCs [2] = test: Cell fractionation: membrane-bound and intracellular radiolabelled drug in PBMCs; assay type: in vitro ADME, human; conditions: 50 μM ABC
Description: In a separate experiment, cells were incubated with the tritiated compounds ([^3H]-3TC, -ddI and -TDF) in the absence or presence of 50 μM ABC as described. The assay was terminated by rapid centrifugation in a chilled microcentrifuge and the cell pellets were washed three times in ice-cold PBS as described, followed by three times of rapid freezing in liquid nitrogen and thawing at room temperature. The suspension was layered on top of 1 mL of ice-cold 42% percoll solution containing 0.25 M sucrose, 1.5 mM magnesium chloride, pH 7.1, and centrifuged (12,000 g, 30 min at 4 °C). After centrifugation, the radioactivity in the clear supernatant (assumed as intracellular drug) and in the pellet/debris, harvested from the bottom of the gradient (assumed as membrane-bound drug) were determined by scintillation counting.

[3] = test system: CEM, CEMVBL (P-gp-overexpressing), CEME1000 (MRP1-overexpressing) and U937 cells; test: Preliminary transport experiments in cell lines; assay type: in vitro ADME; conditions: data not shown; for concentration-dependent effect of unlabelled drug on accumulation of the labelled drugs: 0-100 μM unlabelled drug, CEM, CEMVBL, CEME1000 and U937 cells
P-gp [4] = test system: P-gp; parameters: method as in PMID 11145192; conditions: cited from earlier work
MRP = test system: MRP; parameters: method as in PMID 17328866, PMID 17202245, PMID 19075072; conditions: cited from earlier work
[5] = Octanol-saline partition coefficient; assay type: physicochemical; conditions: octanol/phosphate buffered saline; radiolabelled drug 10-31 nM
Description: Briefly, an equal volume of octanol and phosphate buffered saline (PBS) were presaturated by vigorously vortexing them for 5 min. The suspension was allowed to settle for 10 min before the upper saturated octanol layer was carefully removed and stored in a separate tube. […] Then 540 μL aliquots of each compound were added to an equal volume of presaturated octanol and vortexed for 5 min. The samples were centrifuged (1000 g for 5 min). The concentrations of radiolabelled drug in a volume of the octanol (upper layer) and in a similar volume of saline (lower layer) were measured using scintillation counting. The octanol-saline partition coefficient was determined as a ratio of radiolabelled drug in the octanol phase to radiolabelled drug concentration in the saline phase.

P-gp [6] = conditions: cited from earlier work
BCRP = test system: BCRP; parameters: method as in PMID 17202245; conditions: cited from earlier work
[7] = test system: guinea-pig brain perfusion and choroid plexus models; conditions: cited from earlier work
[8] = unlabelled drugs 50 μM, dipyridamole 50 μM

| Compound | effect of incubation at 4 °C on cell-associated concentration (PBMCs [1]) | intracellular drug concentration, effect of ABC (PBMCs [2]) | membrane-bound drug concentration, effect of ABC (PBMCs [2]) | concentration-dependent effect of unlabelled drug on accumulation of the labelled drugs [3] | inhibition of MRP activity (MRP) | Partition coefficient (mean ± SD) [5] | further results |
| --- | --- | --- | --- | --- | --- | --- | --- |
| O=c1[nH]cnc2c1ncn2[C@H]1CC[C@@H](CO)O1 [ddI, didanosine] | significantly (P < 0.001) reduced at 4 °C | significantly (P < 0.05) decreased | unaffected | – | – | – | – |
| Nc1ccn([C@@H]2CS[C@H](CO)O2)c(=O)n1 [3TC, lamivudine] | significantly (P < 0.001) reduced at 4 °C | unaffected | significantly (P < 0.05) decreased | no concentration-dependent effects | inhibited | 0.117 ± 0.0049 | P-gp substrate ([3]; preliminary studies): not a P-gp substrate; P-gp substrate (P-gp [4]): not a substrate |
| OC[C@H]1O[C@@H](n2cnc3c(O)ncnc32)C[C@@H]1O [dI, deoxyinosine] | – | – | – | – | – | – | effect of unlabelled drug on CAR of [^3H]-TDF (PBMCs [1]; [8]): unaffected |
| CC(C)OC(=O)OCOP(=O)(CO[C@H](C)Cn1cnc2c(N)ncnc21)OCOC(=O)OC(C)C.O=C(O)/C=C/C(=O)O [TDF, Tenofovir disoproxil fumarate] | significantly (P < 0.001) reduced at 4 °C | unaffected | unaffected | no concentration-dependent effects | inhibited | – | inhibition of P-gp activity (P-gp [6]): inhibited; effect of unlabelled drug on CAR of [^3H]-3TC (PBMCs [1]; 1 μM [^3H]-3TC, unlabelled drugs 50 μM, dipyridamole 50 μM, dC 100 μM): significantly (P < 0.05) reduced uptake; effect of unlabelled drug on CAR of [^3H]-ddI (PBMCs [1]; [8]): no effect; cellular association ratio (CAR) (PBMCs [1]): 2.20 ± 0.29; BCRP inhibitory effect (BCRP): devoid of any BCRP inhibitory effect |
| Nc1nc(NC2CC2)c2ncn([C@H]3C=C[C@@H](CO)C3)c2n1 [ABC, abacavir] | did not affect | – | – | no concentration-dependent effects | inhibited | 7.065 ± 0.44 | inhibition of P-gp activity (P-gp [6]): inhibited; effect of unlabelled drug on CAR of [^3H]-ddI (PBMCs [1]; [8]): no effect; cellular association ratio (CAR) (PBMCs [1]): 7.62 ± 1.32; effect on intracellular accumulation of [^3H]-ddI [7]: increased; BCRP inhibitory effect (BCRP): inhibits |
| OC[C@@H](O)[C@@H](O)[C@H](O)[C@H](O)CO [[^14C]-Mannitol, mannitol] | – | – | – | – | – | 0.0022 ± 0.0001 | – |
| OCCN(CCO)c1nc(N2CCCCC2)c2nc(N(CCO)CCO)nc(N3CCCCC3)c2n1 [dipyridamole] | – | – | – | – | – | – | effect of unlabelled drug on CAR of [^3H]-TDF (PBMCs [1]; [8]): unaffected |
